# Results from patent EP3685668B1, “COMPOSITION COMPRISING ACIBENZOLAR-S-METHYL AS EFFECTIVE INGREDIENT FOR CONTROLLING BURSAPHELENCHUS XYLOPHILUS DISEASE AND METHOD FOR CONTROLLING BURSAPHELENCHUS XYLOPHILUS USING SAME” (Industry Foundation of Chonnam National University, priority 2017, dated 2019).
# What was measured:
# PR_4 family = experiment: qRT-PCR expression of induced resistance gene in pine tree callus; type: cell-based; details: 200 µg/mℓ, 24 hours
# Procedure: (§1) For in vitro analysis of induced resistance, the expression of PR genes and other plant defense-related genes was determined, which are evolved in various defense mechanisms including induced resistance. The primers of sixteen induced resistance-related genes of pine tree used in this invention were listed in the below and elongation factor_1 alpha were used as a reference gene. [Table 4] The primer list of defense resistance-related genes
# (§2) After the treatment with 200 µg / mℓ of candidates of the selected induced resistance material, expression of the induced resistance-related gene in pine callus was determined by qRT-PCR using the primer pairs of defense resistance-related genes in Table 4. As a candidate group of an induced resistance material in pine tree, acibenzolar-S-methyl (ASM), TDL (Tiadinil), ITL (Isotianil), PBZ (Probenzole), AZO (Azoxystrobin), VMA (Validamycin A), MeJA (Methyl jasmonate), BABA (DL-3-aminobutyric acid), 2,3-BDO (2,3-Butanediol), GABA (r-Aminobutyric acid), glucan (Glucan), ER (Ergosterol), and AZA (Azelaic acid) were used. For the in vitro analysis of the expression of induced resistance gene in pine callus, the selected induced resistance materials were applied with 500 µℓ of LM liquid medium on a surface of pine tree callus (100 mg) in 12-well microplate to give final concentration of 200 µg/mℓ. Then, the callus surface was sufficiently reacted for 24 hours with the candidate of pine tree induced resistance material by shaking at 50 rpm in a 25 °C shaking incubator under dark condition. RNAs were extracted from the callus after completion of the reaction with an induced resistance material, followed by synthesis of cDNAs. Then, by carrying out qRT-PCR, the expression of induced resistance genes was determined. [Table 5] Expression of induced resistance gene in pine tree callus by TDL, PBZ, ASM, ITL, AZO, VMA, glucan, and AZA
# (§3) Based on the results of assay using young plants and gene expression by selected induce resistance materials, it seemed that acibenzolar-S-methyl had the most excellent effect. Thus, the following tests were carried out using acibenzolar-S-methyl only. Expression of the induced resistance genes at different culture time after the chemical treatment was examined. For the in vitro assay, LM medium containing pine tree callus was treated with acibenzolar-S-methyl at concentration of 200 µg / mℓ, followed by reaction for 1 day, 7 days, or 14 days in a 25°C shaking incubator under dark condition. RNAs were extracted from the callus after the reaction followed by synthesis of cDNAs. Then, by carrying out qRT-PCR, the expression of the induced resistance genes was determined. Depending on reaction time after the treatment, i.e., after 1 day, 7 days, or 14 days, the expression of the obtained induced resistance genes was examined. As a result of the in vitro callus assay depending on reaction time after the treatment with acibenzolar-S-methyl, the expression of the induced resistance-related genes is the highest at 1 day after the treatment with acibenzolar-S-methyl and gradually diminished over time, as it is shown in Table 7. In this regard, it is contemplated that the expression of genes acquired by acibenzolar-S-methyl is not maintained in highly expressed state until the pathogen invasion and just memorized with at minimum level so that the energy consumption by plant can be efficiently managed. [Table 7] Expression of induced resistance gene in pine tree callus by acibenzolar-S-methyl depending on reaction time
# (§4) To have an in vitro assay according to different methods of treatment with acibenzolar-S-methyl, two separate treatment methods, i.e., surface treatment (spraying treatment) of pine tree callus and direct application of the induced resistance material to an LM medium containing pine tree callus, were performed. […]
# PR_5 family = experiment: as above; type: cell-based; details: 200 µg/mℓ, 24 hours
# Procedure: as §1, §2, §3, §4
# PR_1b family = experiment: as above; type: cell-based; details: 200 µg/mℓ, 24 hours
# Procedure: as §1, §2, §3, §4
# Extensin = experiment: as above; type: cell-based; details: 200 µg/mℓ, 24 hours
# Procedure: as §1, §2, §3, §4
# Metallothionein = experiment: as above; type: cell-based; details: 200 µg/mℓ, 24 hours
# Procedure: as §1, §2, §3, §4
# PR_9 family = experiment: as above; type: cell-based; details: 200 µg/mℓ, 24 hours
# Procedure: as §1, §2, §3, §4
# Xyloglucan = experiment: as above; type: cell-based; details: 200 µg/mℓ, 24 hours
# Procedure: as §1, §2, §3, §4
# Antipeptide = experiment: as above; type: cell-based; details: 200 µg/mℓ, 24 hours
# Procedure: as §1, §2, §3, §4
# PR_2 family = experiment: as above; type: cell-based; details: 200 µg/mℓ, 24 hours
# Procedure: as §1, §2, §3, §4
# Hydroxyproline = experiment: as above; type: cell-based; details: 200 µg/mℓ, 24 hours
# Procedure: as §1, §2, §3, §4
# Heat shock 70 = experiment: as above; type: cell-based; details: 200 µg/mℓ, 24 hours
# Procedure: as §1, §2, §3, §4
# [1] = system: Bursaphelenchus xylophilus; experiment: Occurrence of pine wilt disease after trunk injection of induced resistance candidate materials, in vivo test in young red pine trees; details: red pine tree (Pinus densiflora), 30 days after inoculation; for Occurrence rate of pine wilt disease: Number of pine trees showing wilt symptoms / Number of pine trees used for the test: trunk injection 100 µℓ per tree; for Number of pine trees showing wilt symptoms only at growing points of a stem: trunk injection
# Procedure: By using the 15 types of an induced resistance elicitors which have been known to induce the plant resistance against various diseases as candidates, their controlling effect against pine wilt disease was examined. The control efficacy of candidates against pine wilt disease was analyzed according to an in vivo test using red pine tree (Pinus densiflora) which was 2-year old young pine trees (diameter of 5.5 mm or so, and height of about 35 mm).
# As a candidate group of an induced resistance material, two kinds of acibenzolar-S-methyl (ASM), TDL (Tiadinil), ITL (Isotianil), PBZ (Probenzole), AZO (Azoxystrobin), VMA (Validamycin A), MeJA (Methyl jasmonate), BABA (DL-3-aminobutyric acid), 2,3-BDO (2,3-Butanediol), SA (salicyclic acid), GABA (r-Aminobutyric acid), glucan (Glucan), ER (Ergosterol), and AZA (Azelaic acid) were used. Only the use of acibenzolar-S-methyl is according to the invention. Injection of the chemicals was carried out by trunk injection method, i.e., at an angle of 45°, a borehole was created by using an electric drill with thickness of 1.5 mm on a pine stem part that is 5 to 10 cm above the soil surface, a tip (200 µℓ) was inserted to the hole, and, after dissolving the candidate material at concentration level of 200, 20, or 2 µg/mℓ in each solvent, the solution was injected in an amount of 100 µℓ per pine tree. After the injection of the chemical agent, the end part of the tip was sealed with parafilm.
# The pine tree wilt nematodes (Bursaphelenchus xylophilus, National Institute of Forest Science (NIFoS), South Korea) was incubated at 25°C by feeding them with Botrytis cinerea, which have been cultured on a potato dextrose agar (PDA) medium, and after one week incubation, they were collected by Baermann funnel method and were adjusted to the level of 20,000 worms/mℓ by examining the number of the worms under an optical microscope. One week after the chemical treatment, the inoculation of the pine tree wilt nematodes was carried out by tree barking inoculation of 100 µℓ, i.e., 2,000 worms, per tree, and the result was determined 30 days after the inoculation. […] [Table 1] Occurrence rate of pine wilt disease in candidate group of induced resistance materials
SMILES,"Expression of induced resistance gene, PR_4 family (PR_4 family)","Expression of induced resistance gene, PR_5 family (PR_5 family)","Expression of induced resistance gene, PR_1b family (PR_1b family)","Expression of induced resistance gene, Extensin (Extensin)","Expression of induced resistance gene, Metallothionein (Metallothionein)","Expression of induced resistance gene, PR_9 family (PR_9 family)","Expression of induced resistance gene, Xyloglucan (Xyloglucan)","Expression of induced resistance gene, Antipeptide (Antipeptide)","Expression of induced resistance gene, PR_2 family (PR_2 family)","Expression of induced resistance gene, Hydroxyproline (Hydroxyproline)","Expression of induced resistance gene, Heat shock 70 (Heat shock 70)",Occurrence rate of pine wilt disease: Number of pine trees showing wilt symptoms / Number of pine trees used for the test ([1]; 2 µg/mℓ),Occurrence rate of pine wilt disease: Number of pine trees showing wilt symptoms / Number of pine trees used for the test ([1]; 20 µg/mℓ),Occurrence rate of pine wilt disease: Number of pine trees showing wilt symptoms / Number of pine trees used for the test ([1]; 200 µg/mℓ),Number of pine trees showing wilt symptoms only at growing points of a stem ([1]; 2 µg/mℓ),Number of pine trees showing wilt symptoms only at growing points of a stem ([1]; 20 µg/mℓ),Number of pine trees showing wilt symptoms only at growing points of a stem ([1]; 200 µg/mℓ)
"CC(N)CC(=O)O (racemic) [BABA, DL-3-aminobutyric acid]",7.01,0.92,0.48,0.78,1.17,0.43,0.53,0.4,0.43,0.36,0.59,2/3,3/3,2/3,2,2,2
"C=CCOC1=NS(=O)(=O)c2ccccc21 [PBZ, Probenzole]",0.46,1.99,0.26,1.62,0.25,2.52,1.41,1.11,0.46,1.21,0.73,2/3,0/3,1/3,1,,1
"CO/C=C(/C(=O)OC)c1ccccc1Oc1cc(Oc2ccccc2C#N)ncn1 [AZO, Azoxystrobin]",2.04,1.52,1.66,2.01,0.14,1.92,1.93,0.69,1.8,1.11,0.38,0/3,2/2,2/3,,1,2
"N#Cc1ccccc1NC(=O)c1snc(Cl)c1Cl [ITL, Isotianil]",1.39,0.95,1.77,1.39,0.09,1.88,0.97,0.75,1.48,0.72,0.43,2/3,2/3,1/3,1,2,1
